Measurements reported in ChEMBL document CHEMBL1201862, “PubChem BioAssay data set” (2004).
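Method: 48-hour compound exposure of cells in 96-well plates, five concentrations, linear interpolation of endpoints. At the GI50, growth is halved.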 Active and inactive are the calls of the source. No stated cut-off is given here; in the data, active = GI50 up to about 1.1 µM and inactive = higher.

How the values were obtained:
Assay in all cases: DTP human tumour cell line panel, 48 h
A549 = test system: A549
K562 = test system: K562
ACHN = test system: ACHN
MOLT-4 = test system: MOLT-4
PC-3 = test system: PC-3
HCT-116 = test system: HCT-116
SF-539 = test system: SF-539
786-0 = test system: 786-0
SK-MEL-28 = test system: SK-MEL-28
NCI-H23 = test system: NCI-H23
T47D = test system: T47D
U-251 = test system: U-251
COLO 205 = test system: COLO 205
SF-295 = test system: SF-295
RPMI-8226 = test system: RPMI-8226
NCI/ADR-RES = test system: NCI/ADR-RES
Malme-3M = test system: Malme-3M
SW-620 = test system: SW-620
SN12C = test system: SN12C
BT-549 = test system: BT-549
SK-OV-3 = test system: SK-OV-3
UO-31 = test system: UO-31
SNB-19 = test system: SNB-19
UACC-257 = test system: UACC-257
HOP-62 = test system: HOP-62
SF-268 = test system: SF-268
MCF7 = test system: MCF7
NCI-H460 = test system: NCI-H460
SK-MEL-5 = test system: SK-MEL-5
OVCAR-3 = test system: OVCAR-3
MDA-MB-435 = test system: MDA-MB-435
UACC-62 = test system: UACC-62
M14 = test system: M14
TK-10 = test system: TK-10
IGROV-1 = test system: IGROV-1
KM12 = test system: KM12
HCT-15 = test system: HCT-15
HCC 2998 = test system: HCC 2998
OVCAR-8 = test system: OVCAR-8
Hs-578T = test system: Hs-578T
NCI-H522 = test system: NCI-H522
SR = test system: SR
HOP-92 = test system: HOP-92
NCI-H226 = test system: NCI-H226
OVCAR-5 = test system: OVCAR-5
EKVX = test system: EKVX
MDA-MB-231 = test system: MDA-MB-231
CAKI-1 = test system: CAKI-1
HT-29 = test system: HT-29
DU-145 = test system: DU-145
SK-MEL-2 = test system: SK-MEL-2
RXF 393 = test system: RXF 393
HL-60 = test system: HL-60
CCRF-CEM = test system: CCRF-CEM
SNB-75 = test system: SNB-75
A498 = test system: A498
LOX IMVI = test system: LOX IMVI
OVCAR-4 = test system: OVCAR-4

Measured: GI50

COc1cc([C@H]2CC(=O)C[C@H](c3cc(OC)c(OC)c(OC)c3)C23C(=O)c2ccccc2C3=O)cc(OC)c1OC
inactive: A549 > 100 µM | K562 44.2 µM | ACHN 59.4 µM | MOLT-4 29.1 µM | PC-3 > 100 µM | HCT-116 19.8 µM | SF-539 45.7 µM | 786-0 77.6 µM | SK-MEL-28 > 100 µM | NCI-H23 > 100 µM | T47D > 100 µM | U-251 41.3 µM | COLO 205 > 100 µM | SF-295 47.1 µM | RPMI-8226 > 100 µM | NCI/ADR-RES > 100 µM | Malme-3M > 100 µM | SW-620 > 100 µM | SN12C > 100 µM | BT-549 91.4 µM | SK-OV-3 37.3 µM | UO-31 > 100 µM | SNB-19 > 100 µM | UACC-257 > 100 µM | HOP-62 51.5 µM | SF-268 > 100 µM | MCF7 71.3 µM | NCI-H460 91.2 µM | SK-MEL-5 > 100 µM | OVCAR-3 57 µM | MDA-MB-435 > 100 µM | UACC-62 43.1 µM | M14 > 100 µM | TK-10 > 100 µM | IGROV-1 > 100 µM | KM12 > 100 µM | HCC 2998 > 100 µM | OVCAR-8 40 µM | Hs-578T 46.6 µM | NCI-H522 25 µM | SR > 100 µM | HOP-92 33.6 µM | NCI-H226 54.5 µM | OVCAR-5 > 100 µM | EKVX > 100 µM | MDA-MB-231 56.9 µM | CAKI-1 > 100 µM | HT-29 > 100 µM | DU-145 > 100 µM | SK-MEL-2 42.4 µM | RXF 393 32.5 µM
> 100 µM: HCT-15

COc1ccc(-c2c(C#N)c(N)nc3c2CCS(=O)(=O)c2ccccc2-3)cc1
inactive: A549 > 100 µM | HL-60 > 100 µM | K562 > 100 µM | CCRF-CEM > 100 µM | ACHN > 100 µM | PC-3 > 100 µM | HCT-116 > 100 µM | 786-0 68.2 µM | SK-MEL-28 > 100 µM | NCI-H23 > 100 µM | T47D > 100 µM | U-251 > 100 µM | SNB-75 38.5 µM | COLO 205 > 100 µM | NCI/ADR-RES > 100 µM | Malme-3M 44.3 µM | SW-620 > 100 µM | SN12C > 100 µM | A498 > 100 µM | BT-549 > 100 µM | UO-31 > 100 µM | SNB-19 > 100 µM | UACC-257 > 100 µM | SF-268 > 100 µM | NCI-H460 > 100 µM | LOX IMVI > 100 µM | SK-MEL-5 > 100 µM | OVCAR-4 > 100 µM | MDA-MB-435 > 100 µM | UACC-62 > 100 µM | TK-10 > 100 µM | IGROV-1 > 100 µM | KM12 > 100 µM | HCC 2998 > 100 µM | OVCAR-8 > 100 µM | Hs-578T 37.7 µM | NCI-H522 > 100 µM | SR > 100 µM | HOP-92 > 100 µM | NCI-H226 > 100 µM | MDA-MB-231 > 100 µM | CAKI-1 > 100 µM | HT-29 > 100 µM | DU-145 > 100 µM | SK-MEL-2 > 100 µM
> 100 µM: HCT-15
